Experimental data published in paper PMC12311259, “Antifibrotic effects of specific targeting of the 5‐hydroxytryptamine 2B receptor (5‐HT2BR) in murine models and ex vivo models of scleroderma skin” (Arthritis & Rheumatology (Hoboken, N.j.), 2025).

Experiments:
[1] = test system: cGvHD-induced skin fibrosis; assay: Sclerodermatous cGvHD mouse model (B10.D2 to BALB/c), skin fibrosis incl. RNASeq and immunofluorescence of skin; assay type: in vivo
Protocol: (§1) AM1476 was dissolved in sterile distilled water for the ex vivo and in vivo experiments. A concentration of 30 μM was applied for the ex vivo experiment. For the in vivo experiments, 1, 3, or 10 mg/kg was administered orally once or twice daily.
(§2) The B10.D2→BALB/c (H‐2d) minor histocompatibility antigen–mismatched model was performed as described.[9], [10] Briefly, female BALB/c (H‐2d) mice were purchased from Janvier. Male B10.D2 (H‐2d) mice were initially purchased from Jackson Laboratory. All mice were maintained in specific pathogen‐free conditions with sterile pellet food and water and a normal day–night cycle. For isolation of unfractionated bone marrow cells, tibial and femoral bones were prepared under sterile conditions. Phosphate buffered saline (PBS) was used to flush bone marrow cells from bone marrow cavities. Subsequently, bone marrow cells were filtered through 70‐μm nylon meshes (BD Biosciences), followed by erythrocyte hemolysis. The remaining bone marrow cells were kept on ice until transplantation. Transplantation of bone marrow cells and splenocytes was performed as follows: Recipient mice (BALB/c [H‐2d]) eight weeks of age received total body irradiation with 750 cGy. Six hours after irradiation, all BALB/c (H‐2d) recipients received bone marrow from either BALB/c (H‐2d) in a syngeneic transplantation manner or B10.D2 (H‐2d) in an allogeneic transplantation manner. For transplantation, 5 × 10[6] splenocytes and 2 × 10[6] bone marrow cells from donor mice were resuspended in 0.2 mL of PBS and injected via tail veins.[9], [10] To reflect the clinical situation with treatment initiation upon clinical signs of chronic graft‐versus‐host disease (cGvHD), treatment was started 21 days after bone marrow transplantation (BMT) and thus after the first clinically detectable manifestations of cGvHD in allogeneically transplanted mice. The outcome of treatment was analyzed seven weeks after transplantation. Eight mice per group were analyzed.
Mice were monitored clinically on a daily basis for behavior, activity, texture of the fur, weight, and consistency of the stool.[13] After the mice were killed, a gross macroscopic evaluation of the lungs and the skin was performed.
Recipient mice were clinically monitored on a daily basis from the day of transplantation to the indicated days after transplantation to determine the incidence and severity of cutaneous cGvHD as well as mobility, diarrhea, and weight loss.[10], [14] The following scoring system for cutaneous cGvHD was used: healthy appearance = 0; skin lesions with alopecia <1 cm[2] in area = 1; skin lesions with alopecia 1 to 2 cm[2] in area = 2; and skin lesions with alopecia >2 cm[2] in area = 3.
(§3) Skin samples were fixed in 4% formalin for six hours and embedded in paraffin. Five‐micrometer sections were cut and stained with hematoxylin and eosin (H&E). The dermal thickness was quantified on H&E‐stained sections using images captured with a light microscope (Nikon eclipse 80i) at 100‐fold magnification by manually measuring the distance between the epidermal‐dermal junction and the dermal‐subcutaneous fat junction at four sites per mouse.[15], [16] For lung samples, the whole left lung was fixed in 4% formalin for six hours and embedded in paraffin. Five‐micrometer sections were cut and stained with trichrome and sirius red. Histologic readouts were evaluation of the fibrotic area as the percentage of the total lung area in sirius red–stained sections (two sections per mouse) and quantification of pulmonary changes using the Ashcroft score (four sections per mouse).[17], [18]
The amount of collagen protein in skin and lung samples was determined by hydroxyproline assay.[19], [20] After digestion in 6 M HCl for three hours at 120°C, the pH of the samples was adjusted to a pH range of 6–7 with 6 M NaOH. Afterward, 0.06 M chloramine T was added to each sample and incubated for 20 minutes at room temperature.

[2] = molecular target: T1, Serotonin (5-Hydroxytryptamine) 5-HT3 (hu) (Homo sapiens, UniProt P46098); assay: Receptor binding, Eurofins Panlabs 271910
T1 construct: Eurofins Panlabs 271910
T1 sequence (P46098 24-478): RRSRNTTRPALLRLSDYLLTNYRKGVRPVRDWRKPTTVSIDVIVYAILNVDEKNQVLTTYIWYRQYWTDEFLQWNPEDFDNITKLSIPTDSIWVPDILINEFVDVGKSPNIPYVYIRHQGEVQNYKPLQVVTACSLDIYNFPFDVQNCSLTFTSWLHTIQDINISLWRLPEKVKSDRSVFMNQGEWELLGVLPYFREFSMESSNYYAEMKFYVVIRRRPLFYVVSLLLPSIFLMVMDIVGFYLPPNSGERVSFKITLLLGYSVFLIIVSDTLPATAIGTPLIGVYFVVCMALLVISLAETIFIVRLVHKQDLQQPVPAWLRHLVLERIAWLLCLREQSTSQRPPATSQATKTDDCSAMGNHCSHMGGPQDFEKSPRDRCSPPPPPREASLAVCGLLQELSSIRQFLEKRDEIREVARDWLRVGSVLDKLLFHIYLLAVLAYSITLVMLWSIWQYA
Source text: (§4) Effects were considered significant if AM1476's mean value was three or more SDs above the vehicle control mean in the agonist assay or three or more SDs below the positive control agonist (5‐nM α‐methylserotonin) mean in the antagonist assay. AM1476 was screened for selectivity against approximately 200 targets using a Eurofins Panlabs Spectrum screen panel including enzymatic and receptor binding assays.

[3] = test system: cGvHD-induced pulmonary fibrosis; assay: Sclerodermatous cGvHD mouse model, pulmonary fibrosis; assay type: in vivo
Protocol: as §1
as §2, with “To reflect the clinical situation with treatment initiation upon clinical signs of chronic graft‐versus‐host disease (cGvHD), treatment was started 21 days after bone marrow transplantation (BMT) and thus after the first clinically detectable manifestations of cGvHD in allogeneically transplanted mice.” left out
as §3, with “Five‐micrometer sections were cut and stained with hematoxylin and eosin (H&E).” left out, “For lung samples, the whole left lung was fixed in 4% formalin for six hours and embedded in paraffin. Five‐micrometer sections were cut and stained with trichrome and sirius red.” left out
The amount of collagen protein in skin and lung samples was determined by hydroxyproline assay.[19], [20] […] The absorbance was determined at 557 nm with a Spectra MAX 190 microplate spectrophotometer. Absolute values were determined using a standard curved generated with type I collagen (Sigma‐Aldrich).

[4] = molecular target: T2, Serotonin (5-Hydroxytryptamine) 5-HT1B (hu) (Homo sapiens, UniProt P28222); assay: Receptor binding, Eurofins Panlabs 271200
T2 construct: Eurofins Panlabs 271200
T2 sequence (P28222 whole entry): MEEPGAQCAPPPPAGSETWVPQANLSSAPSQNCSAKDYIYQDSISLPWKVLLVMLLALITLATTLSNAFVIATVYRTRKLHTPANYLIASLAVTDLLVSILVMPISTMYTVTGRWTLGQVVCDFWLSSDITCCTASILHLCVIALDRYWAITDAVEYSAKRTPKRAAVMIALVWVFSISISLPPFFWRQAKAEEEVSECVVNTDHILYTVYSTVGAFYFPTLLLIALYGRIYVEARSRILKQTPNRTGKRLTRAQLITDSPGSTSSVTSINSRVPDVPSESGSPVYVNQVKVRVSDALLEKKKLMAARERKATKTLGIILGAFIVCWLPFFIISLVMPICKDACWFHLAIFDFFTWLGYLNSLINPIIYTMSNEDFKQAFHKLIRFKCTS
Source text: as §4

[5] = molecular target: Serotonin (5-Hydroxytryptamine) 5-HT4 (gp) (Cavia porcellus, UniProt O70528); assay: Receptor binding, Eurofins Panlabs 272000; parameters: species or system guinea pig
Serotonin (5-Hydroxytryptamine) 5-HT4 (gp), sequence (O70528 1-358 limits assumed): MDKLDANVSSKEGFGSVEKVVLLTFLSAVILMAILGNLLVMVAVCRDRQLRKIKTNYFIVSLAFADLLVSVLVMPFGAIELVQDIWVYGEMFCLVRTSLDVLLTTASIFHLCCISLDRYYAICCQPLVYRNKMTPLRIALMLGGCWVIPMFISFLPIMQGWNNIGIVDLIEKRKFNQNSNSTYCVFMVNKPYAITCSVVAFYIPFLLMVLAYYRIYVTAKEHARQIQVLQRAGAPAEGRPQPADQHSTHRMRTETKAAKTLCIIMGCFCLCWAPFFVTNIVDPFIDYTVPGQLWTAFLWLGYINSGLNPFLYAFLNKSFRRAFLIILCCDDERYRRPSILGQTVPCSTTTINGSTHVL
Source text: as §4

[6] = treatment from day 21 after BMT, vs vehicle-treated mice seven weeks after BMT
[7] = all three doses, vs vehicle-treated mice seven weeks after BMT

## C[C@@H]1CN(C(=N)N)N=C1c1ccc(F)cc1O [AM1476]
[1]; 10 mg/kg bid and 10 mg/kg qd (comparable to each other) vs 1 mg/kg bid
  antifibrotic effects, comparison of doses: more pronounced than with 1 mg/kg bid
[1]; 10 mg/kg qd
  hydroxyproline content, skin, vs mice killed after three weeks: significant reduction
[1]; all doses
  number of CD45+ leukocytes in skin: none of the concentrations of AM1476 reduced
[1]; all three doses
  myofibroblast counts vs mice killed three weeks after BMT: significantly lower
[1]; all three doses (1 mg/kg bid, 10 mg/kg qd, 10 mg/kg bid), oral
  tolerability (clinical examination, gross necropsy, histology): well tolerated without obvious signs of toxicity
[1]; all three doses, statistically significant for 10 mg/kg qd and 10 mg/kg bid
  AAM (alternatively activated M2 macrophage) counts in the skin: reduction of AAM accumulation
[1]; [6]
  accumulation of hydroxyproline, skin: reduced
  dermal thickening: reduced
  myofibroblast differentiation, skin: reduced
[2]
  % Inhibition at 10 µM, 5-HT3 (hu): 14%
[3]; 10 mg/kg qd
  hydroxyproline levels, lung, vs mice killed three weeks after BMT: below those of mice killed three weeks after BMT
[3]; [7]
  Ashcroft scores: reduced
  collagen-covered lung area: reduced
  hydroxyproline content, lung: reduced
[4]
  % Inhibition at 10 µM, 5-HT1B (hu): 19%
[5]; 1 µM (value in brackets)
  % Inhibition at 1 µM, 5-HT4 (gp): 34%
[5]; 10 µM
  % Inhibition at 10 µM, 5-HT4 (gp): 74%
